Test results taken from patent publication US5840740A, “Aminosterol compounds and a method of treating infection using the aminosterol compounds” (priority 1995, dated 1998).
“Also recorded” adds a separate entry of the source.

Tests used:
NHE1β = conditions: background, nucleated erythrocytes; cited from earlier work
[1] = Hematological profile in L1210-inoculated mice
Text: C57B mice were inoculated with L1210 lymphoblastic leukemia cells at an inoculum that causes leukemia in 100% of animals.

[2] = test system: human microvascular cells; test: Inhibition of endothelial cell cord formation in vitro; assay type: cell-based; conditions: Homo sapiens, Endothelial cell; Table II; read-out: Cord Formation, Minimum Effective Concentration
Text: Endothelial cells have the capacity in vitro to form tubular aggregates resembling capillaries in various early stages of formation. This conversion occurs under relatively specific conditions, in which essential growth factors along with an effective substratum are provided. It has been shown that both the interaction of growth factors with the endothelial cell and its attachment to a substratum activate the NHE. The activation of this exchanger is believed to be required for subsequent morphologic transformation of the endothelial cell into a multicellular tubular structure.
To assess the effect of compounds on the cord-like structures formed by human microvascular cells when plated in the presence of VEFG (Vascular Endothelial Growth Factor) and basic fibroblast growth factor on a collagen matrix, a standard cord formation assay was used.

[3] = test system: chick embryo vitelline capillaries; test: Chick embryo vitelline capillary regression assay; assay type: in vivo; parameters: key to vascular reactivity (capillary regression): +: Vascular reactivity; 0: No vascular reactivity; +/-: Equivocal reactivity; conditions: for vascular reactivity (capillary regression): 60 min; for Chick embryo diss. assay, Minimum Effective Concentration: Table II; for effect on chick embryo vessels / blood: in words
Protocol: Using the chick embryo vitelline capillaries assay, compounds were tested for their ability to induce capillary regression. Each compound was applied in 0.1 ml of 15% Ficol 400 and PBS onto the embryo, and vascular regression was assessed after 60 minutes.
The 3-day chick embryo consists of an embryonic disc from which numerous vessels emerge and return, forming a "figure 8"-shaped structure--the embryo in the center with vascular loops extending outward over both poles. […] Following a lag period of around 15 minutes, the constriction of continuity between capillary and secondary vessels, generally on the "avenous" side, was observed. Continued pulsatile blood flow progressed, resulting in a "swelling" of the blind tube, followed by a pinching off of the remaining connection and formation of an enclosed vascular sac resembling a "blood island." This process progressed until only the largest vessels remained intact.

B16 melanoma = B16 melanoma growth in C57B mice; assay type: in vivo, mouse; conditions: compound 319, text subcutaneous, FIG. 6 legend intraperitoneal
Protocol: The growth of B16 melanoma in C57B mice is dependent upon neovascularization.
Using the growth of B16 melanoma cells in C57B mice, a recognized model for the evaluation of inhibitors of angiogenesis on the growth of cancers, the effects of subcutaneous, intraperitoneal and oral administration of squalamine were evaluated.
In this model, there was observed little evidence of metastasis with or without treatment with chemotherapeutic agents.
Based on the idea that tumor growth involves both the clonal expansion of a malignant cell along with the development of a supporting vascular supply, a combination of compound 1436 with squalamine was tested to determine whether it would achieve a synergistic effect on solid tumor growth. This concept was evaluated in the B16 melanoma model.
Animals were implanted with B16 melanoma followed by treatment with compound 1436 or 1256 administered in a combined schedule or separately. […] Thus, a combination of these two compounds achieves a therapeutic benefit in tumors dependent on neovascularization that may prevent metastatic spread.

Xenopus tadpole = conditions: stage 59-60, 10 μg/ml; in words
human melanoma = test: Growth of human melanoma cells over time / cell death; assay type: cell-based
[4] = test system: Human ovarian carcinoma SKOV3; test: Growth inhibition in vitro; assay type: cell-based; conditions: in words
Text: As set forth in Table 7 below, all malignant tumors evaluated in tissue culture, endothelial cells and vascular smooth muscle cells were sensitive to inhibition. Thus, compound 1436 has application in the control of growth factor dependent proliferation of many types of tissue.

[5] = Fasting blood glucose in mice; assay type: in vivo, mouse (male CD-1); conditions: mouse, in vivo, iv
Protocol: To study the effect of steroid administrator or the NHE responsible for secretion of insulin, several of the aminosterols from shark liver were administered to fasting mice. Male CD-1 mice were assigned to one of four treatment groups. Whole blood glucose was tested using glucometer (Lifescan Glucometer II and One Touch test strips). Statistical analysis was via one-way analysis of variance (ANOVA) followed by subsequent Bonferonni's t-test.

[6] = L1210 mice, cisplatin 8 mg/kg ip or compound 1436 10 mg/kg ip q4d

N=C(N)NC(=O)c1nc(Cl)c(N)nc1N [Amiloride]
inhibition of NHE1β (NHE1β): inhibited by high concentrations of amiloride

N.N.[Cl][Pt][Cl] [Cisplatin]
RBC, Early Time [1, 6]: 9.4 10^6 /mm^3 | RBC, Late Time [1, 6]: 1.5 10^6 /mm^3 | WBC, Early Time [1, 6]: 8.1 10^3 /mm^3 | WBC, Late Time [1, 6]: 18.1 10^3 /mm^3 | hematological profile ([1]; in words): profound anemia by day 28

C[C@H](CCC(=O)O)[C@H]1CC[C@H]2[C@@H]3CC[C@H]4C[C@@H](NCCCNCCCCN)CC[C@]4(C)[C@H]3CC[C@]12C [Compound 319]
minimal effective concentration [2]: 13.8 µg/mL | vascular reactivity (capillary regression) ([3]; 0.001 μg applied): +/- | vascular reactivity (capillary regression) ([3]; 0.01 μg applied): + | vascular reactivity (capillary regression) ([3]; 0.1 μg applied): + | vascular reactivity (capillary regression) ([3]; 1 μg applied): + | vascular reactivity (capillary regression) ([3]; 10 μg applied): + | Chick embryo diss. assay, Minimum Effective Concentration [3]: 0.001 µg | effect on chick embryo vessels / blood [3]: especially active | suppression of B16 melanoma tumor growth (B16 melanoma): achieved control of B16 in C57B mice to an extent almost comparable to squalamine | suppression of B16 melanoma tumor growth (B16 melanoma; listed as compound 319): suppression of murine melanoma in mice | pharmacological response in tadpole (Xenopus tadpole): common vascular occlusive effect

CC(C)CCC[C@@H](C)[C@H]1CC[C@H]2[C@@H]3CC[C@H]4C[C@@H](NCCCNCCCCNCCCN)CC[C@]4(C)[C@H]3CC[C@]12C [Compound 353]
vascular reactivity (capillary regression) ([3]; 1 μg applied): +/- | Chick embryo diss. assay, Minimum Effective Concentration [3]: > 1 µg | effect on chick embryo vessels / blood [3]: no effect on the chick embryo capillary bed | effect on growth of melanoma (human melanoma; 48 hours vs first 12 hours): most pronounced over 48 hours, with less of an effect noted within the first 12 hours of incubation | mode of cell death / activity against melanoma (human melanoma; in words): potent activity against melanoma and a number of cancer cells; also recorded: apoptotic cell death has been induced | pharmacological response in tadpole (Xenopus tadpole): effects like those produced by compound 1436

COC(=O)CC[C@@H](C)[C@H]1CC[C@H]2[C@@H]3CC[C@H]4C[C@H](NCCCNCCCCNCCCN)CC[C@]4(C)[C@H]3CC[C@]12C [Compound 458]
Chick embryo diss. assay, Minimum Effective Concentration [3]: > 1 µg | pharmacological response in tadpole (Xenopus tadpole): pharmacologic activity similar to that seen for FX 3

COC(=O)CC[C@@H](C)[C@H]1CC[C@H]2[C@@H]3CC[C@H]4C[C@@H](NCCCNCCCCNCCCN)CC[C@]4(C)[C@H]3CC[C@]12C [Compound 459]
Chick embryo diss. assay, Minimum Effective Concentration [3]: > 1 µg | pharmacological response in tadpole (Xenopus tadpole): pharmacologic activity similar to that seen for FX 3

COC(=O)CC[C@@H](C)[C@H]1CC[C@H]2[C@@H]3C[C@@H](O)[C@H]4C[C@@H](NCCCNCCCCNCCCN)CC[C@]4(C)[C@H]3CC[C@]12C [Compound 466]
Chick embryo diss. assay, Minimum Effective Concentration [3]: 1 µg | pharmacological response in tadpole (Xenopus tadpole): pharmacologic activity similar to that seen for FX 3

CC(C)C(CO)(CC[C@@H](C)[C@H]1CC[C@H]2[C@@H]3[C@H](O)C[C@H]4C[C@@H](NCCCNCCCCN)CC[C@]4(C)[C@H]3CC[C@]12C)OS(=O)(=O)O (some centres unmarked) [Compound 1437]
Chick embryo diss. assay, Minimum Effective Concentration [3]: > 1 µg | anticancer activity [4]: anticancer activity against the human ovarian carcinoma, SKOV3 | hyperglycemia [5]: caused hyperglycemia in mice
